# Where two headings read alike, the source gives them in different places.
# Target: T1, human Bradykinin B1 receptor (Homo sapiens, UniProt P46663)
# T1 construct: host or cells: CHO-K1
# T1 sequence (P46663 1-353): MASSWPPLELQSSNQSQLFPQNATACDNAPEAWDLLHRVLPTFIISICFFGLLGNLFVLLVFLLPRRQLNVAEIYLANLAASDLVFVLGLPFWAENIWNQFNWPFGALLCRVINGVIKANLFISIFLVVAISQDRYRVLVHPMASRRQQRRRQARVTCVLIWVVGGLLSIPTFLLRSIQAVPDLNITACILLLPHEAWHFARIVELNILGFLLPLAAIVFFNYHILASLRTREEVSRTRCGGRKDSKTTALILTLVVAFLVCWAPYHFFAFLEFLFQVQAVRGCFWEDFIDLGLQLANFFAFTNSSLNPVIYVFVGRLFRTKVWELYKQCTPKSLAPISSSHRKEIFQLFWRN
# Test: Calcium flux Assay (FLIPR) with recombinant CHO-K1 cells expressing human Bradykinin B1 receptor, in presence (hB1 IC50) or absence (hB1 free IC50) of 0.1% BSA
# Type: cell-based
# [1] = in absence of 0.1% BSA, read-out: hB1 free IC50
# [2] = in presence of 0.1% BSA, read-out: hB1 IC50
IC50 [1],IC50 [2],SMILES
1130 nM,2160 nM,"CCOc1cc(-c2ccc(NC(=O)C3(c4cccc(Cl)c4)CC3)cc2-c2nnn[nH]2)cc(C(F)(F)F)n1 [Example 166, 1-(3-chlorophenyl)-N-{4-[2-ethoxy-6-(trifluoromethyl)pyridin-4-yl]-3-(1H-tetrazol-5-yl)phenyl} cyclopropane-carboxamide]"
634 nM,–,"O=C(Nc1ccc(-c2cc(F)ncc2F)c(-c2nnn[nH]2)c1)C1(c2ccc(C(F)(F)F)cc2F)CC1 [Example 167, N-[4-(2,5-difluoropyridin-4-yl)-3-(1H-tetrazol-5-yl)phenyl]-1-[2-fluoro-4-(trifluoromethyl)phenyl] cyclopropane-carboxamide]"
–,117 nM,"CN(C)c1ccc(-c2ccc(NC(=O)C3(c4cccc(Cl)c4)CC3)cc2-c2nnn[nH]2)cn1 [Example 169, 1-(3-chlorophenyl)-N-{4-[6-(dimethylamino)pyridin-3-yl]-3-(1H-tetrazol-5-yl)phenyl} cyclopropane-carboxamide]"
968 nM,–,"O=C(Nc1ccc(-c2ccnc(C(F)F)c2)c(-c2nnn[nH]2)c1)C1(c2cccc(Cl)c2)CC1 [Example 170, 1-(3-chlorophenyl)-N-{4-[2-(difluoromethyl)pyridin-4-yl]-3-(1H-tetrazol-5-yl)phenyl} cyclopropane-carboxamide]"
433 nM,347 nM,"O=C(Nc1ccc(-c2ccnc(C(F)(F)F)c2)c(-c2nnn[nH]2)c1)C1(c2cccc(Cl)c2F)CC1 [Example 172, 1-(3-chloro-2-fluorophenyl)-N-{3-(1H-tetrazol-5-yl)-4-[2-(trifluoromethyl)pyridin-4-yl]phenyl} cyclopropane-carboxamide]"
1110 nM,–,"O=C(Nc1ccc(-c2ccnc(C(F)(F)F)c2)c(-c2nnn[nH]2)c1)C1(c2ccc(F)cn2)CC1 [Example 174, 1-(5-fluoropyridin-2-yl)-N-{3-(1H-tetrazol-5-yl)-4-[2-(trifluoromethyl)pyridin-4-yl]phenyl} cyclopropane-carboxamide]"
258 nM,–,"O=C(Nc1ccc(-c2ccnc(C(F)(F)F)c2)c(-c2nnn[nH]2)c1)C1(c2ccc(F)c(Cl)c2)CC1 [Example 176, 1-(3-chloro-4-fluorophenyl)-N-{3-(1H-tetrazol-5-yl)-4-[2-(trifluoromethyl)pyridin-4-yl]phenyl} cyclopropane-carboxamide]"
274 nM,–,"O=C(Nc1ccc(-c2ccnc(C(F)(F)F)c2)c(-c2nnn[nH]2)c1)C1(c2ccc(Cl)c(F)c2)CC1 [Example 177, 1-(4-chloro-3-fluorophenyl)-N-{3-(1H-tetrazol-5-yl)-4-[2-(trifluoromethyl)pyridin-4-yl]phenyl} cyclopropane-carboxamide]"
287 nM,–,"O=C(Nc1ccc(-c2ccnc(C(F)(F)F)c2)c(-c2nnn[nH]2)c1)C1(c2ccc(F)cc2F)CC1 [Example 178, 1-(2,4-difluorophenyl)-N-{3-(1H-tetrazol-5-yl)-4-[2-(trifluoromethyl)pyridin-4-yl]phenyl} cyclopropane-carboxamide]"
393 nM,–,O=C(Nc1ccc(-c2ccnc(C(F)(F)F)c2)c(-c2nnn[nH]2)c1)C1(c2cc(F)ccc2F)CC1 [Example 179]
768 nM,–,"COc1cc(C2(C(=O)Nc3ccc(-c4ccnc(C(F)(F)F)c4)c(-c4nnn[nH]4)c3)CC2)ccc1F [Example 180, 1-(4-fluoro-3-methoxyphenyl)-N-{3-(1H-tetrazol-5-yl)-4-[2-(trifluoromethyl)pyridin-4-yl]phenyl} cyclopropane-carboxamide]"
185 nM,1350 nM,"O=C(Nc1ccc(-c2ccnc(F)c2)c(-c2nnn[nH]2)c1)C1(c2cccc(Cl)c2)CC1 [Example 182, 1-(3-chlorophenyl)-N-[4-(2-fluoropyridin-4-yl)-3-(1H-tetrazol-5-yl)phenyl] cyclopropane-carboxamide]"
251 nM,–,O=C(Nc1ccc(-c2cnc(NC3CC3)nc2)c(-c2nnn[nH]2)c1)C1(c2cccc(Cl)c2)CC1 [Example 185]
252 nM,–,"N#Cc1ccc(-c2ccc(NC(=O)C3(c4cccc(Cl)c4)CC3)cc2-c2nnn[nH]2)cc1F [Example 186, 1-(3-chlorophenyl)-N-[4′-cyano-3′-fluoro-2-(1H-tetrazol-5-yl)biphenyl-4-yl]cyclopropane carboxamide]"
1620 nM,–,"COc1ncccc1-c1ccc(NC(=O)C2(c3cccc(Cl)c3)CC2)cc1-c1nnn[nH]1 [Example 187, 1-(3-chlorophenyl)-N-[4-(2-methoxypyridin-3-yl)-3-(1H-tetrazol-5-yl)phenyl] cyclopropane-carboxamide]"
2350 nM,–,"CO[C@H]1CC[C@@H](c2ccc(NC(=O)C3(c4cccc(Cl)c4F)CC3)cc2-c2nnn[nH]2)CC1 [Example 189, 1-(3-chloro-2-fluorophenyl)-N-[4-(cis-4-methoxy-cyclohexyl)-3-(1H-tetrazol-5-yl)phenyl] cyclopropane-carboxamide]"
569 nM,575 nM,"Cc1ncc(-c2ccc(NC(=O)C3(c4cccc(Cl)c4)CC3)cc2-c2nnn[nH]2)cn1 [Example 194, 1-(3-chlorophenyl)-N-[4-(2-methylpyrimidin-5-yl)-3-(1H-tetrazol-5-yl)phenyl] cyclopropane-carboxamide]"
183 nM,311 nM,"Cc1ncc(-c2ccc(NC(=O)C3(c4cccc(Cl)c4F)CC3)cc2-c2nnn[nH]2)cn1 [Example 195, 1-(3-chloro-2-fluorophenyl)-N-[4-(2-methylpyrimidin-5-yl)-3-(1H-tetrazol-5-yl)phenyl] cyclopropane-carboxamide]"
493 nM,993 nM,"O=C(Nc1ccc(-c2cnc(C(F)(F)F)nc2)c(-c2nnn[nH]2)c1)C1(c2cccc(Cl)c2F)CC1 [Example 197, 1-(3-chloro-2-fluorophenyl)-N-{3-(1H-tetrazol-5-yl)-4-[2-(trifluoromethyl)pyrimidin-5-yl]phenyl} cyclopropane-carboxamide]"
943 nM,–,"O=C(Nc1ccc(-c2cnc(C(F)(F)F)nc2)c(-c2nnn[nH]2)c1)C1(c2ccc(OC(F)(F)F)cc2)CC1 [Example 198, N-{3-(1H-tetrazol-5-yl)-4-[2-(trifluoromethyl)pyrimidin-5-yl]phenyl}-1-[4-(trifluoromethoxy)phenyl] cyclopropane-carboxamide]"
1580 nM,2400 nM,"COc1cc(-c2ccc(NC(=O)C3(c4cccc(Cl)c4)CC3)cc2-c2nnn[nH]2)cc(C(F)(F)F)n1 [Example 199, 1-(3-chlorophenyl)-N-{4-[2-methoxy-6-(trifluoromethyl)pyridin-4-yl]-3-(1H-tetrazol-5-yl)phenyl} cyclopropane-carboxamide]"
1170 nM,–,"CS(=O)(=O)c1ccc(-c2ccc(NC(=O)C3(c4cccc(Cl)c4)CC3)cc2-c2nnn[nH]2)cn1 [Example 200, 1-(3-chlorophenyl)-N-{4-[6-(methylsulfonyl)pyridin-3-yl]-3-(1H-tetrazol-5-yl)phenyl} cyclopropane-carboxamide]"
374 nM,–,"CS(=O)(=O)c1ccc(-c2ccc(NC(=O)C3(c4ccc(C(F)(F)F)cc4F)CC3)cc2-c2nnn[nH]2)cn1 [Example 201, 1-[2-fluoro-4-(trifluoromethyl)phenyl]-N-{4-[6-(methylsulfonyl)pyridin-3-yl]-3-(1H-tetrazol-5-yl)phenyl} cyclopropane-carboxamide]"
125 nM,–,"O=C(Nc1ccc(-c2ccc(C(F)(F)F)nc2)c(-c2nnn[nH]2)c1)C1(c2ccc(F)cc2)CC1 [Example 204, 1-(4-fluorophenyl)-N-{3-(1H-tetrazol-5-yl)-4-[6-(trifluoromethyl)pyridin-3-yl]phenyl} cyclopropane-carboxamide]"
170 nM,–,"O=C(Nc1ccc(-c2cnc(C(F)(F)F)nc2)c(-c2nnn[nH]2)c1)C1(c2ccc(C(F)(F)F)cc2)CC1 [Example 205, N-{3-(1H-tetrazol-5-yl)-4-[2-(trifluoromethyl)pyrimidin-5-yl]phenyl)-1-[4-(trifluoromethyl)phenyl] cyclopropane-carboxamide]"
485 nM,–,"O=C(Nc1ccc(-c2ccnc(C(F)F)c2)c(-c2nnn[nH]2)c1)C1(c2ccc(F)c(F)c2)CC1 [Example 206, N-{4-[2-(difluoromethyl)pyridin-4-yl]-3-(1H-tetrazol-5-yl)phenyl}-1-(3,4-difluorophenyl) cyclopropane-carboxamide]"
131 nM,78 nM,"Cc1cc(-c2ccc(NC(=O)C3(c4cccc(Cl)c4)CC3)cc2-c2nnn[nH]2)ccn1 [Example 210, 1-(3-chlorophenyl)-N-[4-(2-methylpyridin-4-yl)-3-(1H-tetrazol-5-yl)phenyl] cyclopropane-carboxamide]"
86.8 nM,–,"CCOc1ccc(-c2ncc(NC(=O)C3(c4ccc(C(F)(F)F)cc4F)CC3)cc2-c2nnn[nH]2)cn1 [Example 219, N-[6′-ethoxy-3-(1H-tetrazol-5-yl)-2,3′-bipyridin-5-yl]-1-[2-fluoro-4-(trifluoromethyl)phenyl] cyclopropane-carboxamide]"
–,160 nM,"O=C(Nc1cc(-c2nnn[nH]2)c(-c2ccc(C(F)(F)F)nc2)cc1O)C1(c2ccc(Cl)cc2F)CC1 [Example 221, 1-(4-chloro-2-fluorophenyl)-N-{2-hydroxy-5-(1H-tetrazol-5-yl)-4-[6-(trifluoromethyl)pyridin-3-yl]phenyl} cyclopropane-carboxamide]"
–,84 nM,"O=C(Nc1cc(-c2nnn[nH]2)c(-c2ccc(C(F)(F)F)nc2)cc1O)C1(c2cc(F)cc(Cl)c2)CC1 [Example 223, 1-(3-chloro-5-fluorophenyl)-N-{2-hydroxy-5-(1H-tetrazol-5-yl)-4-[6-(trifluoromethyl)pyridin-3-yl]phenyl} cyclopropane-carboxamide]"

# Source: patent US20210317092A1 (BAYER PHARMA AKTIENGESELLSCHAFT, priority 2016, published 2021)
